Laboratory results reported in paper PMC5862592, “CDK8/19 inhibition induces premature G1/S transition and ATR-dependent cell death in prostate cancer cells” (Oncotarget, 2018).
Read-outs that look alike come from different tables or passages of the source.

Experiments:
Assay in all cases: biochemical
Design in all cases: KINOMEscan active site-directed competition binding assay (DiscoveRx), 456 kinases, per cent of control at 300 nM
Conditions in all cases: read-out: Percent of Control (%)
[1] = target: BMPR2 (Homo sapiens, UniProt Q13873)
Summary of the method: (§1)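 Binding was measured with an active site-directed competition binding assay that quantifies compound–kinase interactions. Test compounds were screened at 300 nmol/L across a 456-kinase panel.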

[2] = target: BUB1 (Homo sapiens, UniProt O43683)
Summary of the method: as §1

[3] = target: T1, CDK4-cyclinD1 (Homo sapiens, UniProt P11802)
T1 construct: cyclinD1
Summary of the method: as §1

[4] = target: CLK1 (Homo sapiens, UniProt P49759)
Summary of the method: as §1

[5] = target: DMPK (Homo sapiens, UniProt Q09013)
Summary of the method: as §1

[6] = target: EGFR(G719C) (Homo sapiens, UniProt P00533, G719C)
Summary of the method: as §1

[7] = target: EGFR(L747-T751del,Sins) (Homo sapiens, UniProt P00533, DEL747-750/T751S)
Summary of the method: as §1

[8] = target: EPHB3 (Homo sapiens, UniProt P54753)
Summary of the method: as §1

[9] = target: FRK (Homo sapiens, UniProt P42685)
Summary of the method: as §1

[10] = target: INSR (Homo sapiens, UniProt P06213)
Summary of the method: as §1

[11] = target: T2, LOK (Homo sapiens, UniProt O94804)
T2 construct: gene STK10
Summary of the method: as §1

[12] = target: MAP4K3 (Homo sapiens, UniProt Q8IVH8)
Summary of the method: as §1

[13] = target: T3, MEK4 (Homo sapiens, UniProt P45985)
T3 construct: gene MAP2K4
Summary of the method: as §1

[14] = target: T4, NDR1 (Homo sapiens, UniProt Q15208)
T4 construct: gene STK38
Summary of the method: as §1

[15] = target: PHKG2 (Homo sapiens, UniProt P15735)
Summary of the method: as §1

[16] = target: PLK3 (Homo sapiens, UniProt Q9H4B4)
Summary of the method: as §1

[17] = target: T5, RSK4(Kin.Dom.1-N-terminal) (Homo sapiens, UniProt Q9UK32)
T5 construct: gene RPS6KA6; Kin.Dom.1-N-terminal
Summary of the method: as §1

[18] = target: TAOK3 (Homo sapiens, UniProt Q9H2K8)
Summary of the method: as §1

[19] = target: TBK1 (Homo sapiens, UniProt Q9UHD2)
Summary of the method: as §1

[20] = target: TSSK1B (Homo sapiens, UniProt Q9BXA7)
Summary of the method: as §1

[21] = target: T6, YSK4 (Homo sapiens, UniProt Q56UN5)
T6 construct: gene MAP3K19
Summary of the method: as §1

[22] = target: T7, p38-beta (Homo sapiens, UniProt Q15759)
T7 construct: gene MAPK11
Summary of the method: as §1

PHKG2, sequence (P15735 whole entry): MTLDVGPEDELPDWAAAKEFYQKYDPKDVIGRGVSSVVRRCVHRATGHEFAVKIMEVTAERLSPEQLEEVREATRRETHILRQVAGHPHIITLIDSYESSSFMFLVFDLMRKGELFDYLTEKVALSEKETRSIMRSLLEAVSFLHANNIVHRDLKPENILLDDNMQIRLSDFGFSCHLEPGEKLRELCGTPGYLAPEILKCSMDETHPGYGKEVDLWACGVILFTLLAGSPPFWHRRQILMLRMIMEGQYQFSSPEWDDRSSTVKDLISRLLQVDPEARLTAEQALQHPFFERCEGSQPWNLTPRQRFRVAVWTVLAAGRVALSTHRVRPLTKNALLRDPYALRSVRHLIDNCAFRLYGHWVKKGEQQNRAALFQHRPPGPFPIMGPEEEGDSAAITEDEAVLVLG
DMPK, sequence (Q09013 whole entry): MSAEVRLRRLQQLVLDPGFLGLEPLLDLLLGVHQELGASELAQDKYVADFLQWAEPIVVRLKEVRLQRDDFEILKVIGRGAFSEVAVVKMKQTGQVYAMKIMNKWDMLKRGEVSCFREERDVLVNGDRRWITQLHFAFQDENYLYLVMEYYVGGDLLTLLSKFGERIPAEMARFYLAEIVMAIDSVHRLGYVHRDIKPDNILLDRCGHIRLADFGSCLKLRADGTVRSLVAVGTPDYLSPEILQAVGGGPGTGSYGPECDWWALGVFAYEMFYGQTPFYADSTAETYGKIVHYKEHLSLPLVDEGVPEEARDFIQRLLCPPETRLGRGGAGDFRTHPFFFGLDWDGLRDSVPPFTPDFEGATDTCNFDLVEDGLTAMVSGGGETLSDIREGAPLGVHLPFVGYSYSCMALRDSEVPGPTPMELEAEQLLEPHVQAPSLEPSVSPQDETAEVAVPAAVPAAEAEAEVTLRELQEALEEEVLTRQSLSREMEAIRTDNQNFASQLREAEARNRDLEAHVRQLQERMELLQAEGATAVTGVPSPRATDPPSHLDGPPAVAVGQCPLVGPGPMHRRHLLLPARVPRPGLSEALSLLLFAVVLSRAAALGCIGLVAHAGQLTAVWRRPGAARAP
TBK1, sequence (Q9UHD2 whole entry): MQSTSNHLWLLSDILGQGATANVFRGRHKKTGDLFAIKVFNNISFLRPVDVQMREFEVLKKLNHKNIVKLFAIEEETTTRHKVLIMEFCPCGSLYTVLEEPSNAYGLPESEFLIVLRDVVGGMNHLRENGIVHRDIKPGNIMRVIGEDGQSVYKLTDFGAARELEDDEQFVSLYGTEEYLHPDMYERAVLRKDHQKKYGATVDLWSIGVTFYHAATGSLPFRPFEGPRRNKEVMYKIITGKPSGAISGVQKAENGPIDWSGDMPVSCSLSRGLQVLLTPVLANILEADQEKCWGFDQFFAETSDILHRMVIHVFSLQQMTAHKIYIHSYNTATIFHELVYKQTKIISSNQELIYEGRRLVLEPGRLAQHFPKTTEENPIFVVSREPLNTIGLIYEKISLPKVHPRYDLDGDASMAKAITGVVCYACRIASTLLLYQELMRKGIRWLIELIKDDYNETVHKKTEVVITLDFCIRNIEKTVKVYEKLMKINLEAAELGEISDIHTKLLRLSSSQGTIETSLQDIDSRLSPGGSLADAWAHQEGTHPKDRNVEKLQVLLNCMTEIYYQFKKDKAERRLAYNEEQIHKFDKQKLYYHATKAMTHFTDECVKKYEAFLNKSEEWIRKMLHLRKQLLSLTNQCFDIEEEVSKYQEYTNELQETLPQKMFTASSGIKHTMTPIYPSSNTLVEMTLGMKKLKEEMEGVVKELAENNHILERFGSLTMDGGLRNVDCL
T4 sequence (Q15208 whole entry): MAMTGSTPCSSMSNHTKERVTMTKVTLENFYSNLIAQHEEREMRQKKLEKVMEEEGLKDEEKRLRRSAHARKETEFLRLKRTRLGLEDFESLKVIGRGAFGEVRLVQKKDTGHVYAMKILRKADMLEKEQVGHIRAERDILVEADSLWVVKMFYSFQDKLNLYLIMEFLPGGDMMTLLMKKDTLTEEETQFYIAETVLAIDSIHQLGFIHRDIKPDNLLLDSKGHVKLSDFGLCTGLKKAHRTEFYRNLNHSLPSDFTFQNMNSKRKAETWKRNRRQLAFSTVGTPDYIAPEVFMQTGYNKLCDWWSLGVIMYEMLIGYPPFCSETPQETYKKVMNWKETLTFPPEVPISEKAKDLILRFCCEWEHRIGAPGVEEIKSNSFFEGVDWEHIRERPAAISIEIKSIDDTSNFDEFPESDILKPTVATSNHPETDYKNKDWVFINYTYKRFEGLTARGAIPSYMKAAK
EGFR(G719C), sequence (P00533 whole entry G719C): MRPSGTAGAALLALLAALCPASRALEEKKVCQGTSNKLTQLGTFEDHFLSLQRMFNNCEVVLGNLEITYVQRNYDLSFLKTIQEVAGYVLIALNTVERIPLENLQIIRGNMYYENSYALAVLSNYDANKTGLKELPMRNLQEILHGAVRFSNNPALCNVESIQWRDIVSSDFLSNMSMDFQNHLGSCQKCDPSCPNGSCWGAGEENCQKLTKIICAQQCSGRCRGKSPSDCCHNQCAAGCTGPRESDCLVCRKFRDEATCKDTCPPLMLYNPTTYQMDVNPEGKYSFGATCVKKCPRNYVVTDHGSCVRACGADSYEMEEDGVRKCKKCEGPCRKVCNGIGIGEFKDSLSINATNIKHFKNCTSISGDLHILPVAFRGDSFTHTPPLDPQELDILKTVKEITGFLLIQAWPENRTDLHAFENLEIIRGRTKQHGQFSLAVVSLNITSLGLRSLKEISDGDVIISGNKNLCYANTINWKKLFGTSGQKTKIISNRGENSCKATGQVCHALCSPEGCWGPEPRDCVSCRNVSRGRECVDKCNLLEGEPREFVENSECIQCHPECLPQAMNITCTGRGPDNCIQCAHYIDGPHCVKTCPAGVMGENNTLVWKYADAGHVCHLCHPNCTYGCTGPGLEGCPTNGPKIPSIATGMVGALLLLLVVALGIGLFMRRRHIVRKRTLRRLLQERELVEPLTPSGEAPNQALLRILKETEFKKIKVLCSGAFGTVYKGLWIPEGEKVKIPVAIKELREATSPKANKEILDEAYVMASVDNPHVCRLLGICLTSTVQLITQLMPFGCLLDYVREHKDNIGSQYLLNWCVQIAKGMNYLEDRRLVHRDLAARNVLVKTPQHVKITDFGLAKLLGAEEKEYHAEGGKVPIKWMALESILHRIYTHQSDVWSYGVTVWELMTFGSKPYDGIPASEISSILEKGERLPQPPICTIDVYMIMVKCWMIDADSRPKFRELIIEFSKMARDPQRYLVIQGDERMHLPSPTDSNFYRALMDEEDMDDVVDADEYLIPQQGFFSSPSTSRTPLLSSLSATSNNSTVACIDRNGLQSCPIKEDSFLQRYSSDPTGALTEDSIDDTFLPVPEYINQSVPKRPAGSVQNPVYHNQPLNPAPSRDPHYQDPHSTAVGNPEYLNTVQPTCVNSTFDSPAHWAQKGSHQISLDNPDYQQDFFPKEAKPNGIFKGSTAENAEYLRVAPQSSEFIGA
FRK, sequence (P42685 whole entry): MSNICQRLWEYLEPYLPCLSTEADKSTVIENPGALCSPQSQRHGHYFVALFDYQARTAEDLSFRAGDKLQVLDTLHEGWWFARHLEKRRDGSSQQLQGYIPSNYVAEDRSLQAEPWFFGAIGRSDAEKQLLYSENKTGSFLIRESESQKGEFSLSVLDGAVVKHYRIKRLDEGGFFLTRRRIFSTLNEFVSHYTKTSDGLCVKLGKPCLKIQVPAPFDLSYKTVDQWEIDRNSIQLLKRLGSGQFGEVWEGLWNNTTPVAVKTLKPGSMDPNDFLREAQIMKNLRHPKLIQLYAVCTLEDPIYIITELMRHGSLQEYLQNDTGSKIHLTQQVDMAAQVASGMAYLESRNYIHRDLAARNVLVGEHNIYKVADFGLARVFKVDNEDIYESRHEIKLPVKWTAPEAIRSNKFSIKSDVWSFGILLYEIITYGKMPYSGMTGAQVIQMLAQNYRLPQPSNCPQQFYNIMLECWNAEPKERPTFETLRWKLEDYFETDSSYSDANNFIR
TAOK3, sequence (Q9H2K8 whole entry): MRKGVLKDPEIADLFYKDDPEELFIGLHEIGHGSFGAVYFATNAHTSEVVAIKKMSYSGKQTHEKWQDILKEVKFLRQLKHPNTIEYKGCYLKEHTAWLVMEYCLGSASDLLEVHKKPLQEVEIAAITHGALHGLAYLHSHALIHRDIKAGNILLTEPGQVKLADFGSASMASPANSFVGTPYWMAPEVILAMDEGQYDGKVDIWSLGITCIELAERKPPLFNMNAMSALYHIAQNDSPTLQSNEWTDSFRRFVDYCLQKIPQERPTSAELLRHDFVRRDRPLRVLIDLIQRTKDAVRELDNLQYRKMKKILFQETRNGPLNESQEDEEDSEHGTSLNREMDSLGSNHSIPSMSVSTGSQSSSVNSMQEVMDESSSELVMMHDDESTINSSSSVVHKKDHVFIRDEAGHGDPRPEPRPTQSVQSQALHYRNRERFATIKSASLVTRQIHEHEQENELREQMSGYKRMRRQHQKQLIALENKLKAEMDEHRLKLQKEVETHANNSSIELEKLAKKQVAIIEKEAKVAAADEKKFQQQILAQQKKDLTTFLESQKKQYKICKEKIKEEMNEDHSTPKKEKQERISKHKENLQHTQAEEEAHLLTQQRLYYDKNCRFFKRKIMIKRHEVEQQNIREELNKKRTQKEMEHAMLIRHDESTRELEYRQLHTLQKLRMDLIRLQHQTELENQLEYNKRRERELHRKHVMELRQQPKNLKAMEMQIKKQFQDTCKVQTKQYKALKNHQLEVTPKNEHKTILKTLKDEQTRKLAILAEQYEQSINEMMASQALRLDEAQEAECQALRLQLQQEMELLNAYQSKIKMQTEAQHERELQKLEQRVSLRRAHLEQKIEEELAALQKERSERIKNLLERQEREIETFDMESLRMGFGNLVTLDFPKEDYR

O=C(/C=C/c1cnccc1-c1ccc(F)cc1)Nc1ccc(CCc2nnco2)cc1 [T-418, (2E)-3-(4-(4-fluorophenyl)pyridin-3-yl)-N-(4-(2-(1,3,4-oxadiazol-2-yl)ethyl)phenyl)acrylamide]
remaining binding at 0.3 µM ([1]; sheet T-418): 86%
remaining binding at 0.3 µM ([2]; sheet T-418): 100%
remaining binding at 0.3 µM ([3]; sheet T-418): 91%
remaining binding at 0.3 µM ([4]; sheet T-418): 100%
remaining binding at 0.3 µM ([5]; sheet T-418): 91%
remaining binding at 0.3 µM ([6]; sheet T-418): 72%
remaining binding at 0.3 µM ([7]; sheet T-418): 100%
remaining binding at 0.3 µM ([8]; sheet T-418): 98%
remaining binding at 0.3 µM ([9]; sheet T-418): 97%
remaining binding at 0.3 µM ([10]; sheet T-418): 69%
remaining binding at 0.3 µM ([11]; sheet T-418): 93%
remaining binding at 0.3 µM ([12]; sheet T-418): 82%
remaining binding at 0.3 µM ([13]; sheet T-418): 100%
remaining binding at 0.3 µM ([14]; sheet T-418): 46%
remaining binding at 0.3 µM ([15]; sheet T-418): 71%
remaining binding at 0.3 µM ([16]; sheet T-418): 82%
remaining binding at 0.3 µM ([17]; sheet T-418): 100%
remaining binding at 0.3 µM ([18]; sheet T-418): 90%
remaining binding at 0.3 µM ([19]; sheet T-418): 75%
remaining binding at 0.3 µM ([20]; sheet T-418): 100%
remaining binding at 0.3 µM ([21]; sheet T-418): 100%
remaining binding at 0.3 µM ([22]; sheet T-418): 77%

Cc1ncccc1Oc1sc(C(N)=O)c2c1-c1c(cnn1C)CC2 [T-474, 1-methyl-8-((2-methylpyridin-3-yl)oxy)-4,5-dihydro-1H-thieno[3,4-g]indazole-6-carboxamide]
remaining binding at 0.3 µM [1]: 99%
remaining binding at 0.3 µM [2]: 100%
remaining binding at 0.3 µM [3]: 95%
remaining binding at 0.3 µM [4]: 32%
remaining binding at 0.3 µM [5]: 98%
remaining binding at 0.3 µM [6]: 99%
remaining binding at 0.3 µM [7]: 87%
remaining binding at 0.3 µM [8]: 100%
remaining binding at 0.3 µM [9]: 97%
remaining binding at 0.3 µM [10]: 66%
remaining binding at 0.3 µM [11]: 100%
remaining binding at 0.3 µM [12]: 100%
remaining binding at 0.3 µM [13]: 100%
remaining binding at 0.3 µM [14]: 39%
remaining binding at 0.3 µM [15]: 88%
remaining binding at 0.3 µM [16]: 88%
remaining binding at 0.3 µM [17]: 100%
remaining binding at 0.3 µM [18]: 88%
remaining binding at 0.3 µM [19]: 67%
remaining binding at 0.3 µM [20]: 100%
remaining binding at 0.3 µM [21]: 100%
remaining binding at 0.3 µM [22]: 64%
